Laboratory results taken from ChEMBL document CHEMBL4818987, “Recent advances of podophyllotoxin/epipodophyllotoxin hybrids in anticancer activity, mode of action, and structure-activity relationship: An update (2010-2020)” (Eur J Med Chem, 2020).

Tests used:
RKO = experiment: Antiproliferative activity against human RKO cells incubated for 48 hrs by CCK8 assay; format: functional, cell-based
[1] = Antiproliferative activity against human HCA7 cells incubated for 48 hrs by CCK8 assay; format: functional, cell-based; settings: HCA-7, 48 h
IMR-5 = experiment: Antiproliferative activity against human IMR5 cells incubated for 48 hrs by CCK8 assay; format: functional, cell-based; settings: IMR-5, 48 h
[2] = target: Prostaglandin G/H synthase 2 (Mus musculus, UniProt Q05769, V509I); experiment: Inhibition of mouse COX2 V523I mutant
Sequence of Prostaglandin G/H synthase 2 (Mus musculus, UniProt Q05769, V509I) (Q05769 18-604 V509I limits assumed): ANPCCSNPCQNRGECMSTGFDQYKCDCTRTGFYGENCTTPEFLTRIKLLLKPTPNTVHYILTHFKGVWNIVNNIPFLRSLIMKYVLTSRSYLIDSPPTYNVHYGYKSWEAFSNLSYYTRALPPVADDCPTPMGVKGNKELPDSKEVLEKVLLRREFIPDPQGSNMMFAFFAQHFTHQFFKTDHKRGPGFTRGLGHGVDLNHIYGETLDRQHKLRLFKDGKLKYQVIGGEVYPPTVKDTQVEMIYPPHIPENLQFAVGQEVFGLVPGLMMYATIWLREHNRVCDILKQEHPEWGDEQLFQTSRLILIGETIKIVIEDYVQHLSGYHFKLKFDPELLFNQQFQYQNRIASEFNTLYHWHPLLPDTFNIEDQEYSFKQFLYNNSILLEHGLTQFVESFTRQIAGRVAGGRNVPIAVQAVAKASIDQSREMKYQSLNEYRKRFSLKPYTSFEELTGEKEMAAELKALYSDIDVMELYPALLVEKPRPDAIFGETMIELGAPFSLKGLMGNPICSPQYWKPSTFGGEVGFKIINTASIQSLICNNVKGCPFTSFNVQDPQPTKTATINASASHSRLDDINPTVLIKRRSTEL

HCT-116 [3] = experiment: Antiproliferative activity against human HCT116 cells incubated for 48 hrs by CCK8 assay; format: functional, cell-based; settings: HCT-116, 48 h
NCI-H292 = experiment: Antiproliferative activity against human NCI-H292 cells incubated for 48 hrs by CCK8 assay; format: functional, cell-based; settings: NCI-H292, 48 h
[4] = target: Prostaglandin G/H synthase 2 (Mus musculus, UniProt Q05769, S516A); experiment: Inhibition of mouse COX2 S530A mutant
Sequence of Prostaglandin G/H synthase 2 (Mus musculus, UniProt Q05769, S516A) (Q05769 18-604 S516A limits assumed): as the sequence (Q05769 18-604 V509I limits assumed) above, with I492V, S499A counted along it

MDA-MB-231 = experiment: Antiproliferative activity against human MDA-MB-231 cells incubated for 48 hrs by CCK8 assay; format: functional, cell-based; settings: MDA-MB-231, 48 h
[5] = target: Prostaglandin G/H synthase 2 (Mus musculus, UniProt Q05769); experiment: Inhibition of mouse COX2
Sequence of Prostaglandin G/H synthase 2 (Mus musculus, UniProt Q05769) (Q05769 whole entry): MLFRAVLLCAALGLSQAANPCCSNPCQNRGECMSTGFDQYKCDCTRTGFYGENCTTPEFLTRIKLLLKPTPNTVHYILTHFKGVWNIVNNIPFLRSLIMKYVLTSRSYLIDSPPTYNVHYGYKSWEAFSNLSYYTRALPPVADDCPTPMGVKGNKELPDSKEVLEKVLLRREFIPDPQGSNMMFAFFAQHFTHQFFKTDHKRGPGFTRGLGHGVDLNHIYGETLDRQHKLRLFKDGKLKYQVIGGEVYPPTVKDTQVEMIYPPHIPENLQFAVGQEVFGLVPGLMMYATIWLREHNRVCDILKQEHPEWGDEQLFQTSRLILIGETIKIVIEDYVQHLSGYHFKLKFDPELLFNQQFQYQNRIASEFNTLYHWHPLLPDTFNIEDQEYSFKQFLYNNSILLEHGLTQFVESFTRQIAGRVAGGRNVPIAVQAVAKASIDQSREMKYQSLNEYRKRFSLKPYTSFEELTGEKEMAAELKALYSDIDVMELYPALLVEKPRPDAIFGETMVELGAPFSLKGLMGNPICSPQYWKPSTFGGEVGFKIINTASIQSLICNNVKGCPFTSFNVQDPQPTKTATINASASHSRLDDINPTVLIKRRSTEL

[6] = Antitumor activity against human HNSCC-1483 cells xenografted in mouse assessed as reduction in tumor growth at 2 mg/kg administered for 14 days and measured on day 2 to day 15 by electronic caliper method relative to control; format: functional; settings: MDA-1483, 336 h, time 14 day, read-out: TGI
[7] = target: Prostaglandin G/H synthase 2 (Mus musculus, UniProt Q05769, R106Q); experiment: Inhibition of mouse COX2 R120Q mutant
Sequence of Prostaglandin G/H synthase 2 (Mus musculus, UniProt Q05769, R106Q) (Q05769 18-604 R106Q limits assumed): as the sequence (Q05769 18-604 V509I limits assumed) above, with R89Q, I492V counted along it

RAW264.7 = experiment: Antiproliferative activity against mouse RAW264.7 cells incubated for 48 hrs by CCK8 assay; format: functional, cell-based; settings: RAW264.7, 48 h
[8] = Cytotoxicity against human C918 cells incubated for 72 hrs by CCK8 assay; format: functional, cell-based; settings: C918, 72 h
[9] = Cytotoxicity against human MUM-2B cells incubated for 72 hrs by CCK8 assay; format: functional, cell-based
[10] = Potency index, ratio of etoposide IC50 to test compound IC50 for antiproliferative activity against human MUM-2B cells; format: functional
[11] = Potency index, ratio of etoposide IC50 to test compound IC50 for antiproliferative activity against human C918 cells; format: functional
MCF7 [12] = experiment: Antiproliferative activity against human MCF7 cells incubated for 48 hrs by MTT assay; format: functional, cell-based; settings: MCF7, 48 h
HL-60 [13] = experiment: Potency index, ratio of etoposide IC50 to test compound IC50 for antiproliferative activity against human HL60 cells; format: functional
A549 [14] = experiment: Antiproliferative activity against human A549 cells incubated for 72 hrs by MTT assay; format: functional, cell-based; settings: A549, 72 h
SW480 [15] = experiment: Antiproliferative activity against human SW480 cells incubated for 48 hrs by MTT assay; format: functional, cell-based; settings: SW480, 48 h
MCF7 [16] = experiment: Potency index, ratio of etoposide IC50 to test compound IC50 for antiproliferative activity against human MCF7 cells; format: functional
A549 [17] = experiment: Potency index, ratio of etoposide IC50 to test compound IC50 for antiproliferative activity against human A549 cells; format: functional
HL-60 [18] = experiment: Antiproliferative activity against human HL-60 cells incubated for 48 hrs by MTT assay; format: functional, cell-based; settings: HL-60, 48 h
SW480 [19] = experiment: Potency index, ratio of etoposide IC50 to test compound IC50 for antiproliferative activity against human SW480 cells; format: functional
SMMC-7721 [20] = experiment: Antiproliferative activity against human SMMC-7721 cells incubated for 48 hrs by MTT assay; format: functional, cell-based; settings: SMMC-7721, 48 h
SMMC-7721 [21] = experiment: Potency index, ratio of etoposide IC50 to test compound IC50 for antiproliferative activity against human SMMC7721 cells; format: functional
[22] = Antiproliferative activity against human HCCLM3 cells incubated for 48 hrs by MTT assay; format: functional, cell-based; settings: HCCLM3, 48 h
HepG2 [23] = experiment: Antitumor activity against human HepG2 cells xenografted in BALB/c nude mouse assessed as tumor weight suppression at 1 mg/kg, ip administered every 6 days for 20 days and measured every 2 days by digital caliper method relative to control; format: functional, organism-based; settings: time 20 day
HepG2 [24] = experiment: Antiproliferative activity against human HepG2 cells incubated for 48 hrs by MTT assay; format: functional, cell-based; settings: HepG2, 48 h
HCT-116 [25] = experiment: Antiproliferative activity against human HCT116 cells incubated for 3 days by MTT assay; format: functional, cell-based; settings: HCT-116, 72 h
BGC-823 [26] = experiment: Antiproliferative activity against human BGC-823 cells incubated for 72 hrs by MTT assay; format: functional, cell-based; settings: BGC-823, 72 h
A549 [27] = experiment: Antiproliferative activity against human A549 cells incubated for 3 days by MTT assay; format: functional, cell-based; settings: A549, 72 h
K562/Adr = experiment: Antiproliferative activity against human K562/ADR cells incubated for 72 hrs by CCK8 assay; format: functional, cell-based
MKN-45 [28] = experiment: Antiproliferative activity against human MKN-45 cells incubated for 48 to 72 hrs by MTT assay; format: functional, cell-based
[29] = Mean initial plasma concentration in Sprague-Dawley rat at 2.5 mg/kg, iv measured after 5 to 1440 mins by LC-MS/MS analysis; format: ADME, organism-based; settings: Rattus norvegicus
NCI-H1993 = experiment: Antiproliferative activity against human NCI-H1993 cells incubated for 48 to 72 hrs by MTT assay; format: functional, cell-based
SK-OV-3 = experiment: Antiproliferative activity against human SKOV3 cells incubated for 48 hrs by MTT assay; format: functional, cell-based; settings: SK-OV-3, 48 h
MGC-803 = experiment: Antiproliferative activity against human MGC-803 cells incubated for 48 hrs by MTT assay; format: functional, cell-based; settings: MGC-803, 48 h
MCF7 [30] = experiment: Cytotoxicity against human MCF7 cells by MTT assay; format: functional, cell-based
[31] = AUCinfinity in Sprague-Dawley rat at 2.5 mg/kg, iv measured after 5 to 1440 mins by LC-MS/MS analysis; format: ADME, organism-based; set-up: route intravenous, dose 2.5 mg/kg, time upper 1440 min, time lower 5 min; settings: in vivo, time 5-1440 min, dose 2.5 mg/kg
K562 [32] = experiment: Antiproliferative activity against human K562 cells incubated for 48 hrs by MTT assay; format: functional, cell-based; settings: K562, 48 h
K562 [33] = experiment: Antiproliferative activity against human K562 cells by MTT assay; format: functional, cell-based
KB [34] = experiment: Cytotoxicity against human KB cells incubated for 72 hrs by SRB method; format: functional, cell-based
MKN-45 [35] = experiment: Antiproliferative activity against human MKN-45 cells incubated for 72 hrs by MTT assay; format: functional, cell-based; settings: time 72 hrs
HeLa [36] = experiment: Antiproliferative activity against human HeLa cells by MTT assay; format: functional, cell-based
K562/A02 [37] = experiment: Antiproliferative activity against human K562/A02 cells by MTT assay; format: functional, cell-based
BGC-823 [38] = experiment: Antiproliferative activity against human BGC-823 cells incubated for 48 hrs by MTT assay; format: functional, cell-based; settings: BGC-823, 48 h
HeLa [39] = experiment: Cytotoxicity against human HeLa cells by MTT assay; format: functional, cell-based
K562 [40] = experiment: Antiproliferative activity against human K562 cells incubated for 72 hrs by CCK8 method; format: functional, cell-based; settings: K562, 72 h
KB [41] = experiment: Cytotoxicity against human KB cells by MTT assay; format: functional, cell-based
K562 [42] = experiment: Cytotoxicity against human K562 cells by SRB assay; format: functional, cell-based
A549 [43] = experiment: Antiproliferative activity against human A549 cells incubated for 48 hrs by MTT assay; format: functional, cell-based; settings: A549, 48 h
KB [44] = experiment: Cytotoxicity against human Vincristine-resistant KB cells incubated for 72 hrs by SRB method; format: functional, cell-based
K562 [45] = experiment: Antiproliferative activity against human K562 cells incubated for 72 hrs by CCK8 assay; format: functional, cell-based; settings: K562, 72 h
HepG2 [46] = experiment: Antiproliferative activity against human HepG2 cells incubated for 48 to 72 hrs by MTT assay; format: functional, cell-based
HOS = experiment: Cytotoxicity against human HOS cells by MTT assay; format: functional
K562/A02 [47] = experiment: Cytotoxicity against human K562/A02 cells by SRB assay; format: functional, cell-based
LoVo = experiment: Cytotoxicity against human LoVo cells by MTT assay; format: functional, cell-based
[48] = Cytotoxicity against human KBv200 cells by MTT assay; format: functional, cell-based; settings: KBv200, Uterine cervix
HeLa [49] = experiment: Antiproliferative activity against human HeLa cells incubated for 48 hrs by MTT assay; format: functional, cell-based
[50] = Plasma clearance in Sprague-Dawley rat at 2.5 mg/kg, iv measured after 5 to 1440 mins by LC-MS/MS analysis; format: ADME, organism-based; set-up: dose 2.5 mg/kg, time upper 1440 min, time lower 5 min; settings: 2.5 mg/kg
B16 = experiment: Antiproliferative activity against […] cells incubated for 48 to 72 hrs by MTT assay; format: functional, cell-based; settings: Mus musculus

COc1ccc2c(c1)c(CC(=O)NCCCCNC(=O)CCC(=O)O[C@H]1c3cc4c(cc3[C@@H](c3cc(OC)c(OC)c(OC)c3)[C@H]3C(=O)OC[C@@H]31)OCO4)c(C)n2C(=O)c1ccc(Cl)cc1
IC50 (RKO): < 30 nM | IC50 [1]: < 30 nM | IC50 (IMR-5): < 30 nM | IC50 [2]: 90 nM | IC50 (HCT-116 [3]): < 30 nM | IC50 (NCI-H292): < 30 nM | IC50 [4]: 90 nM | IC50 (MDA-MB-231): < 30 nM | IC50 [5]: 90 nM | inhibition in vivo at 2 mg/kg [6]: 50% | IC50 [7]: 90 nM | IC50 (RAW264.7): < 30 nM

COc1cc(/C=C/c2ccc(OCC(=O)O[C@H]3c4cc5c(cc4[C@@H](c4cc(OC)c(OC)c(OC)c4)[C@H]4C(=O)OC[C@@H]43)OCO5)cc2)cc(OC)c1
IC50 [8]: 81 nM | IC50 [9]: 347 nM | Ratio IC50 [10]: 3.6 | Ratio IC50 [11]: 34.2

COc1cc([C@@H]2c3cc4c(cc3[C@@H](n3cc(CO[C@H]5O[C@H](CO)[C@H](O)[C@H](O)[C@H]5O)nn3)[C@H]3COC(=O)[C@H]23)OCO4)cc(OC)c1O
IC50 (MCF7 [12]): 2850 nM | Ratio IC50 (HL-60 [13]): 2 | IC50 (A549 [14]): 2850 nM | IC50 (SW480 [15]): 2850 nM | Ratio IC50 (MCF7 [16]): 2 | Ratio IC50 (A549 [17]): 2 | IC50 (HL-60 [18]): 2850 nM | Ratio IC50 (SW480 [19]): 2 | IC50 (SMMC-7721 [20]): 2850 nM | Ratio IC50 (SMMC-7721 [21]): 2

COc1cc([C@@H]2c3cc4c(cc3[C@@H](OC(=O)CCSC(=S)N/N=C/c3ccccn3)[C@H]3COC(=O)[C@H]23)OCO4)cc(OC)c1O
IC50 [22]: 11000 nM | Activity (HepG2 [23]): 93.8% | IC50 (HepG2 [24]): 3890 nM

COc1cc([C@@H]2c3cc4c(cc3[C@@H](O[C@@H]3O[C@@H]5CO[C@@H](C)O[C@H]5[C@H](O)[C@H]3O)[C@H]3COC(=O)[C@H]23)OCO4)cc(OC)c1O [ETOPOSIDE]
IC50 (HCT-116 [25]): 4900 nM | IC50 (BGC-823 [26]): 2880 nM | IC50 (MCF7 [12]): 310 nM | IC50 (A549 [27]): 4900 nM | IC50 (K562/Adr): 413 nM | IC50 (MKN-45 [28]): > 910 nM | C0 [29]: 16.8 µM | IC50 (NCI-H1993): > 910 nM | IC50 (SK-OV-3): 14800 nM | IC50 (MGC-803): 1060 nM | IC50 (MCF7 [30]): 1710 nM | AUC [31]: 3180 ng·h/mL | IC50 (SW480 [15]): 764 nM | IC50 (K562 [32]): 183 nM | IC50 (K562 [33]): 22800 nM | IC50 (KB [34]): 1740 nM | Activity (MKN-45 [35]): 12.8% | IC50 (HeLa [36]): 310 nM | IC50 (K562/A02 [37]): 1980 nM | IC50 (BGC-823 [38]): 1060 nM | IC50 (HeLa [39]): 1710 nM | IC50 (K562 [40]): 1060 nM | IC50 (KB [41]): 1710 nM | IC50 (K562 [42]): 1980 nM | IC50 (A549 [43]): 1060 nM | IC50 (KB [44]): 2270 nM | IC50 (K562 [45]): 3390 nM | IC50 (HL-60 [18]): 310 nM | IC50 (HepG2 [46]): > 910 nM | GI50 (HOS): 36600 nM | GI50 (K562/A02 [47]): 1080 nM | IC50 (LoVo): 1710 nM | IC50 [48]: 1710 nM | IC50 (HeLa [49]): 8120 nM | AUC [50]: 933 ng·h/mL | IC50 (HepG2 [24]): 310 nM | IC50 (SMMC-7721 [20]): 310 nM | IC50 (B16): > 910 nM
